Reference: ChEMBL document CHEMBL5038574, “Selaginellin Derivatives from Selaginella tamariscina and Their Upregulating Effects on Low-Density Lipoprotein Receptor Expression” (J Nat Prod, 2021)
Calls of active or inactive are those of the source. No cut-off for these calls is given here.

Assays:
Assay type in all cases: functional, cell-based
[1] = system: HepG2; assay: Up regulation of protein expression in human HepG2 cells at 10 to 50 uM for 24 hrs by western blot analysis; details: dose 10-50 µM
[2] = system: HepG2; assay: Up regulation of APOE mRNA expression in human HepG2 cells at 50 uM for 24 hrs by qPCR analysis
[3] = system: HepG2; assay: Up regulation of SREBP mRNA expression in human HepG2 cells at 50 uM for 24 hrs by qPCR analysis
[4] = system: HepG2; assay: Up regulation of APOC2 mRNA expression in human HepG2 cells at 50 uM for 24 hrs by qPCR analysis
[5] = system: HepG2; assay: Up regulation of LDLR mRNA expression in human HepG2 cells at 50 uM for 24 hrs by qPCR analysis

Row | SMILES | Activity [5] | further results
1 | COCc1ccc2c(c1CC(=O)c1ccc(O)cc1)C(c1ccc(OC)cc1)(c1ccc(OC)cc1)c1cc(O)ccc1-2 | Active | Activity [1]: Active; Activity [2]: Active; Activity [3]: Active; Activity [4]: Active
2 | COc1ccc(C(=C2C=CC(=O)C=C2)c2c(-c3ccc(O)cc3)ccc(COc3ccc(C(=C4C=CC(=O)C=C4)c4c(-c5ccc(O)cc5)ccc(CO)c4C#Cc4ccc(O)cc4)cc3)c2C#Cc2ccc(O)cc2)cc1 | inactive | –
3 | O=C1C=CC(=C(c2ccc(OCc3ccc(-c4ccc(O)cc4)c(C(=C4C=CC(=O)C=C4)c4ccc(O)cc4)c3C#Cc3ccc(O)cc3)cc2)c2c(-c3ccc(O)cc3)ccc(CO)c2C#Cc2ccc(O)cc2)C=C1 | inactive | –
4 | O=C1C=CC(=C(c2ccc(O)cc2)c2c(-c3ccc(O)cc3)ccc(COCc3ccc(-c4ccc(O)cc4)c(C(=C4C=CC(=O)C=C4)c4ccc(O)cc4)c3C#Cc3ccc(O)cc3)c2C#Cc2ccc(O)cc2)C=C1 | inactive | –
5 | O=C1C=CC(=C(c2ccc(O)cc2)c2c(-c3ccc(O)cc3)ccc(COc3ccc([C@@]4(c5ccc(O)cc5)c5cc(O)ccc5-c5ccc(CO)c(C#Cc6ccc(O)cc6)c54)cc3)c2C#Cc2ccc(O)cc2)C=C1 | inactive | –
6 | O=C1C=CC(=C(c2ccc(O)cc2)c2c(-c3ccc(O)cc3)ccc(CO)c2C#Cc2ccc(O)cc2)C=C1 | inactive | –
